Measurements: patent US9290741B2, “Simplified methods for generating endothelial cells from human pluripotent stem cells under defined conditions” (Wisconsin Alumni Research Foundation, priority 2013, dated 2016)

Columns and labels:
[1] = tested on: hPSC-derived endothelial cells; test: Monolayer integrity: 40-kDa FITC-dextran permeability; type: cell-based, human; details: 100 ng/mL VEGF or 10 μM oME, 24 hr of treatment, versus control
[2] = tested on: hPSC-derived endothelial cells; test: Monolayer integrity: transendothelial electrical resistance (TEER); type: cell-based, human; details: 100 ng/mL VEGF or 10 μM oME, versus control
[3] = tested on: H9 cells; test: Angioblast differentiation of hPSCs with PD0325901 addition, flow cytometry of CD34 and CD31 at day 5; type: cell-based, human; details: 1 μM PD0325901 added during differentiation induced with 6 μM CHIR99021
Description: FIG. 2 CD34^+CD31^+ angioblast differentiation induced by Gsk3 inhibitors in hPSCs is β-catenin dependent. […] At day 5, the percentage of CD34^+CD31^+ cells in culture was assessed by flow cytometry. (B) 19-9-11 iscramble and 19-9-11 […] cultured in mTeSR1 containing 2 μg/ml doxycycline. After 3 days, mRNA was collected and β-catenin expression evaluated by qPCR. Error bars represent the s.e.m. of 3 biological replicates. # […] versus iscramble; […] cultured in LaSR medium containing 6 μM CHIR99021 for 2 days before exposure to StemPro-34 medium for 3 days, with 2 μg/ml dox addition at the indicated times. 5 days after initiation of differentiation, cells were analyzed for CD34 and CD31 expression by flow cytometry. Error bars represent the s.e.m. of three independent experiments. […] hPSCs maintained on a MatrigelTM-coated surface in mTeSR1 were dissociated into single cells with Accutase (Life Technologies) at 37° C. for 5 min and then seeded onto a MatrigelTM-coated cell culture dish at 50,000 cell/cm^2 in mTeSR1 supplemented with 5 μM ROCK inhibitor Y-27632 (Selleckchem)(day -3) for 24 hours. Cells were then cultured in mTeSR1, changed daily. […] Data were collected on a FACSCaliber flow cytometer (Becton Dickinson) and analyzed using FlowJo.

[4] = tested on: 19-9-11 iPSCs; test: Angioblast differentiation of hPSCs, flow cytometry of CD34 and CD31 at day 5; type: cell-based, human; details: for induction of angioblast differentiation (percentage of CD34^+CD31^+ cells): 0.6 μM CHIR98014 or 0.6 μM BIO-acetoxime 2 days in LaSR medium, then StemPro-34 3 days, no VEGF, compared with 6 μM CHIR99021
Description: Cells were then cultured in mTeSR1, changed daily. At day 0, cells were treated with 6-10 μM CHIR99021 (Selleckchem) for 2 days in LaSR basal medium, which consists of Advanced DMEM/F12, 2.5 mM GlutaMAX, and 60 μg/ml ascorbic acid (Sigma, A8960). […] Cells were dissociated into single cells with Accutase for 10 min and then fixed with 1% paraformaldehyde for 20 min at room temperature and stained with primary and secondary antibodies (Table 2) in PBS plus 0.1% Triton X-100 and 0.5% BSA. Data were collected on a FACSCaliber flow cytometer (Becton Dickinson) and analyzed using FlowJo.

[5] = tested on: hPSC-derived endothelial cells; details: 50 ng/ml VEGF, 24 h; day 60 endothelial cells
Description: To assess the formation of capillary structures, 1×10^5 endothelial cells in 0.4 ml EGM-2 medium (Lonza) supplemented with 50 ng/ml VEGF (R&D Systems) were plated into one well of 24-well tissue culture plate pre-coated with 250 μl Matrigel™ (BD Bioscience). Tube formation was observed by light microscopy after 24 h of incubation.

[6] = tested on: hPSC-derived endothelial cells; test: Flow cytometry analysis of ICAM-1 surface expression after TNF-α treatment; type: cell-based, human; details: 10 ng/mL TNF-α for 16 hours versus unstimulated cells
From the text: FIG. 6 Characterization of endothelial cells derived from hPSCs (A) 19-9-11 iPSCs were differentiated as illustrated in FIG. 3A using LaSR basal medium. At day 5, CD34^+ cells were enriched and cultured in endothelial medium on laminin-coated plates. At different time points, the cell numbers were counted. (B-D) the purified day 60 endothelial cells were immunostained with (B) VE-cadherin and CD31, and tested for (C) tube-forming ability upon VEGF treatment and the ability to (D) uptake acetylated low-density lipoprotein (AcLDL). (E) Flow cytometry analysis of surface protein expression of ICAM-1 of untreated cells or cells treated with 10 ng/mL TNF-α for 16 hours. Error bars represent the s.e.m. of three independent experiments. (F-G) Barrier phenotype of the hPSC-derived endothelial cells. […] Barrier function was assessed by measuring transendothelial electrical resistance (TEER) 48 hours after seeding. […] (F) Transendothelial electrical resistance (TEER) was measured as a function of time, and normalized to the initial TEER value (36.7±4.3 Ωcm^2. (G) TEER and fluorescent dextran permeability were measured 24 hours after plating. Error bars represent the s.e.m. of three biological samples. ** p<0.005, VEGF (or oME) versus control; t test. […]

[7] = tested on: 19-9-11 ishcat iPSCs; test: Flow cytometry analysis of Brachyury expression during differentiation; type: cell-based, human; details: 6 μM CHIR99021, in the absence of dox
Description: FIG. 8 Knockdown of β-catenin abolishes endothelial differentiation of hPSCs 19-9-11 ishcat iPSCs were cultured in LaSR basal medium containing 6 μM CH and/or 2 μg/ml doxycycline for 2 days. Flow cytometry analysis of Brachyury expression was performed after 2 days of differentiation.
Cells were dissociated into single cells with Accutase for 10 min and then fixed with 1% paraformaldehyde for 20 min at room temperature and stained with primary and secondary antibodies (Table 2) in PBS plus 0.1% Triton X-100 and 0.5% BSA. Data were collected on a FACSCaliber flow cytometer (Becton Dickinson) and analyzed using FlowJo.

For `CO[C@@H]1[C@@H]2OP(=O)(O)OC[C@H]2O[C@H]1n1c(Sc2ccc(Cl)cc2)nc2c(N)ncnc21` [8-pCPT-2′O-Me-cAMP, 8-(4-chlorophenylthio)-2′-O-Me-cAMP], the “dextran permeability (40 kD)” value [1] was “decreased” and the “transendothelial electrical resistance (TEER)” value [2] was “increased”.
With `O=C(NOC[C@H](O)CO)c1ccc(F)c(F)c1Nc1ccc(I)cc1F` [PD0325901] the “effect on CD34^+CD31^+ cell differentiation” value [3] was “substantially diminished”.
BIO-acetoxime was tested, and the “induction of angioblast differentiation (percentage of CD34^+CD31^+ cells)” value [4] was “effectively induced angioblast differentiation to a similar extent as CHIR99021”.
For CHIR98014, the “induction of angioblast differentiation (percentage of CD34^+CD31^+ cells)” value [4] was “effectively induced angioblast differentiation to a similar extent as CHIR99021”.
VEGF was tested, and the “effect of VEGF treatment on yield of CD34^+CD31^+ cells” value ([4]; VEGF in StemPro-34 for 3 days after CHIR99021, day 5) was “did not significantly increase”, the “vascular tube formation in Matrigel matrix” value [5] was “formed vascular tubes” and the “dextran permeability (40 kD)” value [1] was “increase”. The “transendothelial electrical resistance (TEER)” value [2] was “sustained decrease”.
With TNFα the “expression of ICAM1” value [6] was “greatly increased”.
In the case of `Cc1c[nH]c(-c2cnc(NCCNc3ccc(C#N)cn3)nc2-c2ccc(Cl)cc2Cl)n1` [CHIR99021], the “Brachyury expressing cells by day 2” value [7] is reported as “virtually pure population”, the “CD31^+CD34^+ angioblasts generated” value ([4]; 6-10 μM CHIR99021 2 days, then 3 days StemPro-34 without VEGF, day 5) is reported as 25% and the “CD34^+CD31^+ cells generated” value ([4]; CHIR99021 (6 μM) 2 days in LaSR basal medium, then 3 days StemPro-34 with or without VEGF, day 5) is reported as “more than 20%”. The “CD34^+CD31^+ cells produced” value ([4]; LaSR basal medium, CHIR99021 2 days then 3 days without, seeding density 50,000 cells per cm2 at day -3) was 55%, the “CD34^+CD31^+ cells in 5 days” value ([4]; single basal medium: LaSR basal medium with CHIR99021 2 days, then 3 days same medium without) was 25% and the “CD34^+CD31^+ cells in 5 days” value ([4]; single basal medium: RPMI/B27 or EC medium containing serum, with CHIR99021 2 days, then 3 days without) was “not supporting differentiation to any detectable CD34^+CD31^+ cells”.
